The values below come from US20100288276A1, “COMPOSITIONS FOR TREATING PARKINSON'S DISEASE” (VECTURAL LIMITED, priority 2007, published 2010).

Structures are written as SMILES. Structures can show the parent of a compound that is named as a salt. Where two headings read alike, the source gives them in different places.

The nature of data set [1]: Pharmacokinetics after pulmonary inhalation of apomorphine. It is filed as in vivo, patients. Conditions: for AUC(0-t) / AUC(0-inf) / Cmax / Tmax: human, plasma, inhaled or intranasal; for AUC(0-t): read-out: AUC(0-t), Mean (SD) (converted); for AUC(0-inf): read-out: AUC(0-∞), Mean (SD) (converted); for Cmax: read-out: Cmax, Mean (SD).
The subject of data set [2] is Parkinson's Disease patients. The data set can be described thus: Therapeutic effect (conversion from off to on state) after pulmonary inhalation, clinical trial. Format: in vivo.
Data set [3] in a line: Safety results: treatment emergent adverse events after inhaled apomorphine. It is filed as in vivo, patients. Conditions: Nominal Doses of 400 μg, 1000 μg and 1600 μg. The protocol:
Safety results: Few patients experienced treatment emergent adverse events (TEAEs) and there were no notable differences in incidence or types of TEAEs among the treatment groups. […] Most common TEAEs at <24 h post dose were nervous system disorders.

The nature of data set [4]: Visual assessment of pMDI suspension formulations. Format: physicochemical. The protocol:
Nine formulations (see Table 1 and Table 2) were manufactured.
Reduction of the drug concentration (300 μg/50 μl) was investigated in Formulations 4-6 (see FIGS. 5-8).

The conditions of data set [5]: nasal administration; cited from earlier work.
For data set [6], the system named is Parkinson's Disease patients. To be noted: injected under the skin; cited from earlier work.
The nature of data set [7]: Solubility in pMDI propellant formulations. Format: physicochemical. To be noted: within ethanol-based HFA 134a pMDI formulations. The protocol: Previously a low dose (<25 μg/50 μl) HFA134a/HFA 227 solution formulation has been produced but only at high ethanol contents (50% w/w).
Where [8] appears, read: 1000 μg inhaled, N = 6, 30% apomorphine in 70% lactose blend.

The term AUC(0-t) denotes the area under the concentration-time curve up to a stated or last time point. Broadly, the Cmax is the highest concentration seen after dosing. In general, Tmax refers to the time at which the peak concentration occurs. On to `CN1CCc2cccc3c2[C@H]1Cc1ccc(O)c(O)c1-3` [Apomorphine, apomorphine], for which the “k, Mean (SD)” value is given as 0.01 (0.00) in data set [1] (400 μg inhaled, N = 6, 20% apomorphine in 80% lactose blend); 0.01 (0.00) in data set [1] (setting [8]); 0.02 (0.00) in data set [1] (1600 μg inhaled, N = 6, 30% apomorphine in 70% lactose blend). The “tmax, Mean (SD)” value in data set [1] (400 μg inhaled, N = 6, 20% apomorphine in 80% lactose blend, in min) is reported as 1.0 (0.0). In data set [1] (setting [8]), the “AUC(0-∞), Mean (SD)” value is 216.93 (99.30) ng · min/mL. For the same compound, the figures for the AUC(0-t) in data set [1] (400 ug), in data set [1] (1000 ug) and in data set [1] (1600 ug) were 0.792 ng·h/mL, 2.81 ng·h/mL and 4.51 ng·h/mL, respectively. Further, the AUC(0-inf) in data set [1] (400 ug) was 0.945 ng·h/mL; in data set [1] (1600 ug), 5.03 ng·h/mL. Further, the Cmax in data set [1] (400 ug) was found to be 3.03 ng/mL; in data set [1] (1000 ug) it was 10 ng/mL; in data set [1] (1600 ug), 11.9 ng/mL. Moreover, the Tmax in data set [1] (1000 ug, 1000 μg inhaled, N = 6, 30% apomorphine in 70% lactose blend, read-out: tmax, Mean (SD) (converted)) is 2.6 min; in data set [1] (1600 ug, 1600 μg inhaled, N = 6, 30% apomorphine in 70% lactose blend, read-out: tmax, Mean (SD) (converted)), 2.2 min; in data set [1] (Tmax / time of peak apomorphine plasma concentration, pulmonary inhalation), 1 to 3 min; in data set [5], “approximately 15 minutes”. In data set [1] (pulmonary inhalation, 400-1600 μg), the “dose proportionality of AUC(0-t), AUC(0-∞) and Cmax” value was “Dose proportionality was observed”. In addition, the “mean duration of the therapeutic effect” value in data set [2] (clinical trial, pulmonary inhalation) came out at 75 min. For the same compound, the “onset of the therapeutic effect (conversion)” value in data set [2] (majority of patients, after inhaling apomorphine) was at most 10 min. The “conversion from the off to the on state” value in data set [2] (some patients, as quickly as, pulmonary inhalation) was 2 min. Moreover, the tolerability result in data set [3] is given as “well tolerated”. The “suspension behaviour (visual assessment)” value is given as “cream (float)” in data set [4] (264 μg/50 μl suspension in HFA 227), “rapidly sediment” in data set [4] (300 μg/50 μl in pure HFA134a) and “rapidly sedimented” in data set [4] (600 μg/50 μl in pure HFA134a). Moreover, the density result in data set [4] (density matched at approximately 60% w/w HFA 227 and 40% w/w HFA134a) is “about 1.33 g/ml”. Moreover, the “period for which the effect is maintained” value in data set [6] is listed as “about 60 minutes”. Besides, in data set [6], the “time to bring about an on time” value was 7 to 10 min.
`CN1CCc2cccc3c2[C@H]1Cc1ccc(O)c(O)c1-3` [apomorphine hydrochloride]: the solubility entry in data set [7] is given as “low solubility”.
